Data: publication PMC12724303 (Journal of Virology, 2025)
Read-outs that look alike come from different tables or passages of the source.

Assays:
Vero E6/TMPRSS2 cells [1] = type: cell-based
Experimental: A solution of each CyD derivative, prepared in DMEM supplemented with 10% FBS and 1 mg/mL G-418, was filtered and sterilized using a DISMIC-25cs 0.45 µm filter. […] After 24 h, the cells were treated with CyD derivatives and further incubated for 72 h in a humidified incubator at 37°C with 5% CO₂. Cytotoxicity was assessed under a microscope.

[2] = tested on: JEV Beijing-1 variant (procoagulant activity); type: biochemical, Japanese encephalitis virus
in vitro = settings: African green monkey
red blood cells = settings: cited from earlier work
[3] = biological target: SARS-CoV-2 spike protein-ACE2 binding (UniProt P0DTC2+Q9BYF1)
Vero cells = type: cell-based; settings: CCK-8, tested up to 100 mM
Vero E6/TMPRSS2 cells [4] = settings: CCK-8, tested up to 100 mM
Pichinde virus = settings: guinea pigs infected with Pichinde virus, treated 6-7 days after infection; cited from earlier work
[5] = Vero E6/TMPRSS2 cells, 72 h, microscope, twofold dilutions with 10 mM as highest concentration

Sequence of SARS-CoV-2 spike protein-ACE2 binding (Q9BYF1 18-740, one chain of several): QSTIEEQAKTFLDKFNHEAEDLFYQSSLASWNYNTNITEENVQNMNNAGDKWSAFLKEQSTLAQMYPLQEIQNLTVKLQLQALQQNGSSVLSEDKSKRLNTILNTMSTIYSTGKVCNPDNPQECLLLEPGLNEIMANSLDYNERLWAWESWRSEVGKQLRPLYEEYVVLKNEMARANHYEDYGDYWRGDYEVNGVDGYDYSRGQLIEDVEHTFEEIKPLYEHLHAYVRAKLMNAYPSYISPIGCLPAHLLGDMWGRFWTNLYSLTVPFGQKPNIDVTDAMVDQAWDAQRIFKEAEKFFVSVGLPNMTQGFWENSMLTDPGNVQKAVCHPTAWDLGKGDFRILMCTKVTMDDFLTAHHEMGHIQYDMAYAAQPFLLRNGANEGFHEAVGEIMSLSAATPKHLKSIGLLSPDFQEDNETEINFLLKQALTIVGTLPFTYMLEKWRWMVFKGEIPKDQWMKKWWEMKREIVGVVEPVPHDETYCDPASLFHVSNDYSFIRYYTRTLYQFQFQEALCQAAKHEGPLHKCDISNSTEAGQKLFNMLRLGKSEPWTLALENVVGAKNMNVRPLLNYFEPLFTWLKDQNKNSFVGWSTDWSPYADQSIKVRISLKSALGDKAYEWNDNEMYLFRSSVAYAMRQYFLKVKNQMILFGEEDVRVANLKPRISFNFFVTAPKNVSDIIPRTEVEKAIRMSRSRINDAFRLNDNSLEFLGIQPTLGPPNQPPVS

## OC[C@H]1O[C@@H]2O[C@H]3[C@H](O)[C@@H](O)[C@@H](O[C@H]4[C@H](O)[C@@H](O)[C@@H](O[C@H]5[C@H](O)[C@@H](O)[C@@H](O[C@H]6[C@H](O)[C@@H](O)[C@@H](O[C@H]7[C@H](O)[C@@H](O)[C@@H](O[C@H]8[C@H](O)[C@@H](O)[C@@H](O[C@H]9[C@H](O)[C@@H](O)[C@@H](O[C@H]1[C@H](O)[C@H]2O)O[C@@H]9CO)O[C@@H]8CO)O[C@@H]7CO)O[C@@H]6CO)O[C@@H]5CO)O[C@@H]4CO)O[C@@H]3CO [γ-CyD]
Vero E6/TMPRSS2 cells [1]; [5]
  Highest non-toxic concentration: 2.50 mM

## COC[C@H]1O[C@@H]2O[C@H]3[C@H](OC)[C@@H](OC)[C@@H](O[C@H]4[C@H](OC)[C@@H](OC)[C@@H](O[C@H]5[C@H](OC)[C@@H](OC)[C@@H](O[C@H]6[C@H](OC)[C@@H](OC)[C@@H](O[C@H]7[C@H](OC)[C@@H](OC)[C@@H](O[C@H]8[C@H](OC)[C@@H](OC)[C@@H](O[C@H]1[C@H](OC)[C@H]2OC)O[C@@H]8COC)O[C@@H]7COC)O[C@@H]6COC)O[C@@H]5COC)O[C@@H]4COC)O[C@@H]3COC [TM-β-CyD]
Vero E6/TMPRSS2 cells [1]; [5]
  Highest non-toxic concentration: 1.25 mM

## hydroxypropyl-α-cyclodextrin [HP-α-CyD]
Vero E6/TMPRSS2 cells [1]; [5]
  Highest non-toxic concentration: ≥10.0 mM

## OC[C@H]1O[C@@H]2O[C@H]3[C@H](O)[C@@H](O)[C@@H](O[C@H]4[C@H](O)[C@@H](O)[C@@H](O[C@H]5[C@H](O)[C@@H](O)[C@@H](O[C@H]6[C@H](O)[C@@H](O)[C@@H](O[C@H]7[C@H](O)[C@@H](O)[C@@H](O[C@H]8[C@H](O)[C@@H](O)[C@@H](O[C@H]1[C@H](O)[C@H]2O)O[C@@H]8CO)O[C@@H]7CO)O[C@@H]6CO)O[C@@H]5CO)O[C@@H]4CO)O[C@@H]3CO [β-CyD]
Vero E6/TMPRSS2 cells [1]; [5]
  Highest non-toxic concentration: ≥10.0 mM

## COC[C@H]1O[C@@H]2O[C@H]3[C@H](O)[C@@H](OC)[C@@H](O[C@H]4[C@H](O)[C@@H](OC)[C@@H](O[C@H]5[C@H](O)[C@@H](OC)[C@@H](O[C@H]6[C@H](O)[C@@H](OC)[C@@H](O[C@H]7[C@H](O)[C@@H](OC)[C@@H](O[C@H]8[C@H](O)[C@@H](OC)[C@@H](O[C@H]1[C@H](O)[C@H]2OC)O[C@@H]8COC)O[C@@H]7COC)O[C@@H]6COC)O[C@@H]5COC)O[C@@H]4COC)O[C@@H]3COC [DM-β-CyD, 2,6-di-O-methyl-β-cyclodextrin]
Vero E6/TMPRSS2 cells [1]; African green monkey
  Highest non-toxic concentration: 5.00 mM
[2]; 5 mM, 37°C
  effect on clotting time (JEV procoagulant activity): had no effect
In vitro
  CC50: 5.74 mM
Red blood cells
  concentration causing 50% hemolysis: 1000 µM

## COC[C@H]1O[C@@H]2O[C@H]3[C@H](O)[C@@H](OC)[C@@H](O[C@H]4[C@H](O)[C@@H](OC)[C@@H](O[C@H]5[C@H](O)[C@@H](OC)[C@@H](O[C@H]6[C@H](O)[C@@H](OC)[C@@H](O[C@H]7[C@H](O)[C@@H](OC)[C@@H](O[C@H]1[C@H](O)[C@H]2OC)O[C@@H]7COC)O[C@@H]6COC)O[C@@H]5COC)O[C@@H]4COC)O[C@@H]3COC [DM-α-CyD]
Vero E6/TMPRSS2 cells [1]; [5]
  Highest non-toxic concentration: 2.50 mM

## COC[C@H]1O[C@@H]2O[C@H]3[C@H](OC(C)=O)[C@@H](OC)[C@@H](O[C@H]4[C@H](OC(C)=O)[C@@H](OC)[C@@H](O[C@H]5[C@H](OC(C)=O)[C@@H](OC)[C@@H](O[C@H]6[C@H](OC(C)=O)[C@@H](OC)[C@@H](O[C@H]7[C@H](OC(C)=O)[C@@H](OC)[C@@H](O[C@H]8[C@H](OC(C)=O)[C@@H](OC)[C@@H](O[C@H]1[C@H](OC(C)=O)[C@H]2OC)O[C@@H]8COC)O[C@@H]7COC)O[C@@H]6COC)O[C@@H]5COC)O[C@@H]4COC)O[C@@H]3COC [DMA-β-CyD]
[3]
  effect on spike protein-ACE2 binding: did not interfere with this interaction
[2]; 10 mM, 28°C
  effect on clotting time (JEV procoagulant activity): clotting time remained similar to that of the control
[2]; 10 mM, 37°C
  effect on clotting time (JEV procoagulant activity): prolonged
Vero cells
  CC50: ≥ 100 mM
Vero E6/TMPRSS2 cells [4]
  CC50: ≥ 100 mM
Red blood cells; at 100 mM
  hemolysis: did not induce hemolysis

## OC[C@H]1O[C@@H]2O[C@H]3[C@H](O)[C@@H](O)[C@@H](O[C@H]4[C@H](O)[C@@H](O)[C@@H](O[C@H]5[C@H](O)[C@@H](O)[C@@H](O[C@H]6[C@H](O)[C@@H](O)[C@@H](O[C@H]7[C@H](O)[C@@H](O)[C@@H](O[C@H]1[C@H](O)[C@H]2O)O[C@@H]7CO)O[C@@H]6CO)O[C@@H]5CO)O[C@@H]4CO)O[C@@H]3CO [α-CyD]
Vero E6/TMPRSS2 cells [1]; [5]
  Highest non-toxic concentration: 5.00 mM

B1: bavituximab (antibody, chains of the INN, looked up, V domains shown)
VH: EVQLQQSGPELEKPGASVKLSCKASGYSFTGYNMNWVKQSHGKSLEWIGHIDPYYGDTSYNQKFRGKATLTVDKSSSTAYMQLKSLTSEDSAVYYCVKGGYYGHWYFDVWGAGTTVTVSS
VL: DIQMTQSPSSLSASLGERVSLTCRASQDIGSSLNWLQQGPDGTIKRLIYATSSLDSGVPKRFSGSRSGSDYSLTISSLESEDFVDYYCLQYVSSPPTFGAGTKLELK
Pichinde virus
  animals survived: 50%
